ChEMBL document CHEMBL1201862, “PubChem BioAssay data set” (2004)
Active and inactive are the calls of the source.

Tests used:
[1] = biological target: Intestinal-type alkaline phosphatase (Mus musculus, UniProt P24822); assay: PubChem AID 488785; assay type: functional
[2] = biological target: T1, Alkaline phosphatase, tissue-nonspecific isozyme (Homo sapiens, UniProt P05186); assay: TNAP enzyme inhibition by screening hits, dose response, selectivity assay for mouse IAP inhibitor project, biochemical, human TNAP, uHTS hits (AID 488906); assay type: functional
T1 sequence (P05186 whole entry): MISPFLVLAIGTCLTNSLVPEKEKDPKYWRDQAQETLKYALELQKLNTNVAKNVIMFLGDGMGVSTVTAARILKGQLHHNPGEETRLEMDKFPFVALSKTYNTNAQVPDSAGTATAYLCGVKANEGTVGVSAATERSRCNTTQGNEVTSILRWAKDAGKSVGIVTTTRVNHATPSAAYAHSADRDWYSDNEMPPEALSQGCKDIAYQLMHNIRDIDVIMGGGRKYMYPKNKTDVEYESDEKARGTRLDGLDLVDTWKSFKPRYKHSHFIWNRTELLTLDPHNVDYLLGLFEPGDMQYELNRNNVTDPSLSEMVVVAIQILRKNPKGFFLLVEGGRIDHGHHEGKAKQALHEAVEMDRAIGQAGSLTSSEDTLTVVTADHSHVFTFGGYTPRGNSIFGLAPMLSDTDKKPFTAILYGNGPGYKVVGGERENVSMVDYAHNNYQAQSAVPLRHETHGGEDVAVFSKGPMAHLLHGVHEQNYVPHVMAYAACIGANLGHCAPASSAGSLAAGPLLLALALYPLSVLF

[3] = biological target: Intestinal-type alkaline phosphatase (Homo sapiens, UniProt P09923); assay: activation of human intestinal alkaline phosphatase – biochemical, dose response (AID 488873); assay type: functional
[4] = biological target: T2, Short transient receptor potential channel 4 (Mus musculus, UniProt Q9QUQ5); assay: potentiation of DAMGO-evoked TRPC4 calcium signal – cell-based, HEK293 TRPC4/mu-opioid, Fluo-4 calcium, EC20 DAMGO, dose response (AID 434941); assay type: functional
T2 sequence (Q9QUQ5 whole entry): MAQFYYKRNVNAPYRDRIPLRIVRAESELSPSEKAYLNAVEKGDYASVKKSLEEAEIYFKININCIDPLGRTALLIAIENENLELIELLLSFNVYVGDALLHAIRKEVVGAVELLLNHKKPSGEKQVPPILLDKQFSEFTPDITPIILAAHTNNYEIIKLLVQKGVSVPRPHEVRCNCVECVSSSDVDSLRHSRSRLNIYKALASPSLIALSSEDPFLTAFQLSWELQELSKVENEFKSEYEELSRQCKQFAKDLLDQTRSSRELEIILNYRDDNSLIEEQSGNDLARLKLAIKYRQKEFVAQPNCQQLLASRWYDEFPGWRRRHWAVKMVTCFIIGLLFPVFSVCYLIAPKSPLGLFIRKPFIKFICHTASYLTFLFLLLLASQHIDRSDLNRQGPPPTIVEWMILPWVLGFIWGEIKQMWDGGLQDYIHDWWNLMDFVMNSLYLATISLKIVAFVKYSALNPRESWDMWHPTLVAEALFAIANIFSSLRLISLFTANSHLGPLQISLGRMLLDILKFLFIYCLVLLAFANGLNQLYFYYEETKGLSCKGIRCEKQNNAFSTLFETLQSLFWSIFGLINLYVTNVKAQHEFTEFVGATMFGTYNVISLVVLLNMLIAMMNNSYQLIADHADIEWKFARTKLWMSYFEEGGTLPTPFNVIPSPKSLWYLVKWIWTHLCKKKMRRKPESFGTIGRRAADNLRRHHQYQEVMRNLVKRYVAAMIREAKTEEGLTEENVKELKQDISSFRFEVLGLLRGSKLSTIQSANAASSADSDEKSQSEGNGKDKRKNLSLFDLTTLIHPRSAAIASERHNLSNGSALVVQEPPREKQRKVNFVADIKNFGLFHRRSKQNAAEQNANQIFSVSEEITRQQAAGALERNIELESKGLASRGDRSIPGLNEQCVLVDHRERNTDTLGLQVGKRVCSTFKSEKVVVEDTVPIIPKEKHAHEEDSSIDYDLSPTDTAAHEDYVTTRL

[5] = biological target: T3, Long-chain-fatty-acid--AMP ligase FadD28 (Mycobacterium tuberculosis, UniProt P9WQ59); assay: Fluorescence polarization aasay to screen for inhibitors that compete for the binding of FadD28 to a bisubstrate Measured in Biochemical System Using Plate Reader - 2147-01_Inhibitor_Dose_CherryPick_Activity.; assay type: functional, Mycobacterium tuberculosis H37Rv
T3 sequence (P9WQ59 whole entry): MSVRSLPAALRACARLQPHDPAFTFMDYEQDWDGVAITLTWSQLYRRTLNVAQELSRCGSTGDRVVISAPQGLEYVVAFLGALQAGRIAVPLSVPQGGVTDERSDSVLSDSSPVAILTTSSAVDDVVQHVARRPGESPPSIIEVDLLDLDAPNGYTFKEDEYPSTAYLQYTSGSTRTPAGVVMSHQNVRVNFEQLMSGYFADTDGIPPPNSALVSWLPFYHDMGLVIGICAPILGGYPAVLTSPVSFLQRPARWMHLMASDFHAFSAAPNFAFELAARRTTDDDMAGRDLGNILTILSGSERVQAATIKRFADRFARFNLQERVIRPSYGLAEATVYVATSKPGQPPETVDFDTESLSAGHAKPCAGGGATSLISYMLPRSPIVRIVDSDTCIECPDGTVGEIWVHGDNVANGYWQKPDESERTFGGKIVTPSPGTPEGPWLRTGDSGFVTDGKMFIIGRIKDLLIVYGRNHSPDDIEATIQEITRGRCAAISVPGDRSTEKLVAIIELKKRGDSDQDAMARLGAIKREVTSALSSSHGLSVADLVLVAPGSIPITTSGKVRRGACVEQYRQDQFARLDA

[6] = biological target: Eukaryotic translation initiation factor 4H (Homo sapiens, UniProt Q15056); assay: inhibitors of translation initiation factor eIF4H – SAR follow-up (AID 435011); assay type: functional
[7] = biological target: T4, Carboxy-terminal domain RNA polymerase II polypeptide A small phosphatase 1 (Homo sapiens, UniProt Q9GZU7); assay: CTDSP1 inhibitors, concentration-response, biochemical, absorbance readout, ultra-high-throughput screen actives (AID 540297); assay type: functional
T4 sequence (Q9GZU7 whole entry): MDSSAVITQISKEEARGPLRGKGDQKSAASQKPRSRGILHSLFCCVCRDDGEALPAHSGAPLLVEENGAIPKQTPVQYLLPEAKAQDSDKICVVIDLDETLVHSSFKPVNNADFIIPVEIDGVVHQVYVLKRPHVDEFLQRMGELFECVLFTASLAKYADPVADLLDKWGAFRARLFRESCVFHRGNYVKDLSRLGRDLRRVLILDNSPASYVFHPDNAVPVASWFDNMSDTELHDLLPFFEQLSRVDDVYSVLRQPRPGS

[8] = biological target: T5, Polyadenylate-binding protein 1 (Homo sapiens, UniProt P11940); assay: PABP inhibition in translation initiation, SAR follow-up (AID 435018); assay type: functional
[9] = biological target: DNA dC->dU-editing enzyme APOBEC-3A (Homo sapiens, UniProt P31941); assay: A3A deaminase inhibition for selectivity – biochemical, dose response (AID 504722); assay type: functional
[10] = biological target: Mitochondrial peptide methionine sulfoxide reductase (Bos taurus, UniProt P54149); assay: Absorbance-based biochemical high throughput dose response assay for activators of Methionine sulfoxide reductase A (MsrA).; assay type: functional
Beta Lactamase = Beta Lactamase (Pseudomonas aeruginosa, UniProt Q932Y6); assay: BLA reporter interference, concentration series – BLA reporter cells, FRET fluorescence, artefact control for NOD2-RIPK2 interaction inhibitor project, dose response (AID 651552); assay type: functional, cell-based
[11] = biological target: DNA dC->dU-editing enzyme APOBEC-3G (Homo sapiens, UniProt Q9HC16); assay: Dose Response confirmation of small molecule APOBEC3G DNA Deaminase Inhibitors via a fluorescence-based single-stranded DNA deaminase assay. [Related pubchem assays (depositor defined):AID493012, AID493028]; assay type: functional
[12] = biological target: T1, Alkaline phosphatase, tissue-nonspecific isozyme; assay: potency against alkaline phosphatase TNAP – biochemical, luminescent, dose response, SAR follow-up (AID 1056)
Phosphomannomutase 2 = biological target: T6, Phosphomannomutase 2 (Homo sapiens, UniProt O15305); assay: Counter screen SAR assay for PMM2 inhibitors via a fluorescence intensity assay. [Related pubchem assays (depositor defined):AID1545, AID1574]
T6 sequence (O15305 whole entry): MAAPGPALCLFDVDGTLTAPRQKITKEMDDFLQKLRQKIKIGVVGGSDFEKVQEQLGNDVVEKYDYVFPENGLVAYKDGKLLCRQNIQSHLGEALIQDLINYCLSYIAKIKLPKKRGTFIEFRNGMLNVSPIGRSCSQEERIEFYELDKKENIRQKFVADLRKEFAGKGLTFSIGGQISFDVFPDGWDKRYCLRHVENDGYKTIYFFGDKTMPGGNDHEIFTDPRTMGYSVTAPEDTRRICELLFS

[13] = viability loss in HeLa cells – cytotoxicity control for MgcRacGAP inhibitor project, dose response (AID 624300); assay type: functional
[14] = biological target: Phosphoethanolamine/phosphocholine phosphatase (Homo sapiens, UniProt Q8TCT1); assay: SAR assay for compounds that inhibit PHOSPHO1. [Related pubchem assays (depositor defined):AID1545, AID1565, AID1574]
[15] = biological target: T7, Mannose-6-phosphate isomerase (Homo sapiens, UniProt P34949); assay: phosphomannose isomerase inhibition – biochemical, fluorescence intensity, confirmation (AID 1535)
T7 sequence (P34949 whole entry): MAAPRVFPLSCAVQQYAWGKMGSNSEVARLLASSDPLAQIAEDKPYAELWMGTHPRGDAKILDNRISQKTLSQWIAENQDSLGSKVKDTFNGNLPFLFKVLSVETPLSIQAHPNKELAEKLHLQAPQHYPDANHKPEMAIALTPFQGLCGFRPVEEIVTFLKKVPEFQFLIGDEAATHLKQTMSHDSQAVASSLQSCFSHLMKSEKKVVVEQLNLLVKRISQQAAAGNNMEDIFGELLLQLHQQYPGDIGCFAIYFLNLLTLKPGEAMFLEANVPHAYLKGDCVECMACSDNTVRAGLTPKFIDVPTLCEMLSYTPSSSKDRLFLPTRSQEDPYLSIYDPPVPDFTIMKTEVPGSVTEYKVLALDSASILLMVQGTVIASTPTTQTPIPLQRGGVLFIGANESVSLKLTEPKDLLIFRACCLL

[16] = biological target: T5, Polyadenylate-binding protein 1; assay: MLLE binding blockers, Cy5 peptide tracer – biochemical, fluorescence polarization, Cy5-PAM2 peptide, secondary, miRNA deadenylation inhibitor project, dose response (AID 602260); assay type: functional; conditions: read-out: IC50_Mean
[17] = Fluorescence-based cell-based high throughput dose response assay for inhibitors of the interaction of nucleotide-binding oligomerization domain containing 2 (NOD2) and the receptor-interacting serine-threonine kinase 2 (RIPK2).; assay type: functional; conditions: Homo sapiens
[18] = biological target: T5, Polyadenylate-binding protein 1; assay: MLLE domain peptide-binding blockers, IC50 – biochemical, fluorescence polarization, FITC-PAM2 peptide, dose response (AID 602259); assay type: functional; conditions: read-out: IC50_Mean
[19] = biological target: T8, Rac GTPase-activating protein 1 (Homo sapiens, UniProt Q9H0H5); assay: blockers of MgcRacGAP-driven Rac1 GTP hydrolysis – biochemical, ADP Hunter fluorescence, primary and confirmatory, confirmation (AID 624330); assay type: functional
T8 sequence (Q9H0H5 whole entry): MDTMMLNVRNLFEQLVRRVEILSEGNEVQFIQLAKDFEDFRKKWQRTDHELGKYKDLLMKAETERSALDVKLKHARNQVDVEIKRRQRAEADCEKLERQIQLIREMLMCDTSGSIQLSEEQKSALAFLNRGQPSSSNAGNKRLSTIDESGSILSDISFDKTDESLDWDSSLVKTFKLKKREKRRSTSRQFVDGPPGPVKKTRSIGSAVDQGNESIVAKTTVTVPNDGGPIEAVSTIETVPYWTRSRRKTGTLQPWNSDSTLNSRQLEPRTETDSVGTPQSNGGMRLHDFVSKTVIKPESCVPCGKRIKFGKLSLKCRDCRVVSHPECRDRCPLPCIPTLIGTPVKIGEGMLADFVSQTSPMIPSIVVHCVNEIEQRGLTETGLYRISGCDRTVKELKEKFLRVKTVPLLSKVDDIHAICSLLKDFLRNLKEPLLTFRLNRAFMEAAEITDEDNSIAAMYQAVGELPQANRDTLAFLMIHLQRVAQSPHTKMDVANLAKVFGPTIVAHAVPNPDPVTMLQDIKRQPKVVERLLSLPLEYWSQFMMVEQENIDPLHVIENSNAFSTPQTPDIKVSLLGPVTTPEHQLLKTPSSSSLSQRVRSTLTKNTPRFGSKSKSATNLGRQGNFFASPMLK

T5 sequence (P11940 whole entry): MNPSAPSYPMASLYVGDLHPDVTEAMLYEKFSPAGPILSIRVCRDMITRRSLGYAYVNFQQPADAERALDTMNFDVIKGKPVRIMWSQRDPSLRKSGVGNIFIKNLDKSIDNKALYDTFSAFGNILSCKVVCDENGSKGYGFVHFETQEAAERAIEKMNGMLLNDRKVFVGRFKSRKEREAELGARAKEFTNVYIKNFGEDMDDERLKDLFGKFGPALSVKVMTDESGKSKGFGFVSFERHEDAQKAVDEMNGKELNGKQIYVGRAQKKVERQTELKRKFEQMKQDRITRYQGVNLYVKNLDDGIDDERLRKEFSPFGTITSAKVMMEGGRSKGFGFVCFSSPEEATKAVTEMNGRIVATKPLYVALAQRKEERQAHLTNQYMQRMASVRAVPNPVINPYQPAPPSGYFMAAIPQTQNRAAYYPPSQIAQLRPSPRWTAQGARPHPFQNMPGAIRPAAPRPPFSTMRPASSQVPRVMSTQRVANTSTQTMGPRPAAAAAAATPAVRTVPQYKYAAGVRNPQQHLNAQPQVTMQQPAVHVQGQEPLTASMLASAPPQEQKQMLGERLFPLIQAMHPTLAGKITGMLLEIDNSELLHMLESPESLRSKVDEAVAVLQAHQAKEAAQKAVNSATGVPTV
Mitochondrial peptide methionine sulfoxide reductase, sequence (P54149 whole entry): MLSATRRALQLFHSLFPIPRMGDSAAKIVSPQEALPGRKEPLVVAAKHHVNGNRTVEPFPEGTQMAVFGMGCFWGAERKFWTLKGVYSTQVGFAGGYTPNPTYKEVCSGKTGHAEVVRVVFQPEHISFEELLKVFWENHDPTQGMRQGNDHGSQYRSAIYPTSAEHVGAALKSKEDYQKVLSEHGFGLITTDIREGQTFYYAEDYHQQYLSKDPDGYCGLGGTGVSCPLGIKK
Beta Lactamase, sequence (Q932Y6 whole entry): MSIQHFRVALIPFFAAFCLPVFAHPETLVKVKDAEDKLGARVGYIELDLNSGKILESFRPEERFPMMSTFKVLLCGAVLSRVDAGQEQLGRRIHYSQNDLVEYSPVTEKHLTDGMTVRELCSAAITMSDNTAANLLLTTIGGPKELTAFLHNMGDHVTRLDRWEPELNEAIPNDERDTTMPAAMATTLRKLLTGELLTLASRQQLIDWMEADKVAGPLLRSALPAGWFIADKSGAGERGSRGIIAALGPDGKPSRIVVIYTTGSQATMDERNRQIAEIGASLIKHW
Phosphoethanolamine/phosphocholine phosphatase, sequence (Q8TCT1 whole entry): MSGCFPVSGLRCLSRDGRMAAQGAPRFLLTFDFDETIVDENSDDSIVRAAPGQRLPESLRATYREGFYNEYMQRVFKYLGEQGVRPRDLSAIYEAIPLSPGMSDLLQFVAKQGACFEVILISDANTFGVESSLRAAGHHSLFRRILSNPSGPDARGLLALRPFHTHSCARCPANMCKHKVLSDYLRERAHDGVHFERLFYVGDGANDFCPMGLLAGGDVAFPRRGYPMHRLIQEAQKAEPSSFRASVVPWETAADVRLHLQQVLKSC
DNA dC->dU-editing enzyme APOBEC-3G, sequence (Q9HC16 whole entry): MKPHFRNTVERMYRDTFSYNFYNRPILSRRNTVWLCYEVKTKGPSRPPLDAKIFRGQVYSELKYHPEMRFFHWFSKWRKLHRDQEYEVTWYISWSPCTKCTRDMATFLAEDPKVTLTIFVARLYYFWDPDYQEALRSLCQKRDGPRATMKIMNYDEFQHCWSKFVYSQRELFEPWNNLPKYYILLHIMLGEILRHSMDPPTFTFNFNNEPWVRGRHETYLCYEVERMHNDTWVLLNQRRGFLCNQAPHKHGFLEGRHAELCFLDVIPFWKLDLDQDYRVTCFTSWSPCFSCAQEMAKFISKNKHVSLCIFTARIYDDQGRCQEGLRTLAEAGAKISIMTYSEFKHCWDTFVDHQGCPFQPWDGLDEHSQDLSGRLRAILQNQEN
DNA dC->dU-editing enzyme APOBEC-3A, sequence (P31941 whole entry): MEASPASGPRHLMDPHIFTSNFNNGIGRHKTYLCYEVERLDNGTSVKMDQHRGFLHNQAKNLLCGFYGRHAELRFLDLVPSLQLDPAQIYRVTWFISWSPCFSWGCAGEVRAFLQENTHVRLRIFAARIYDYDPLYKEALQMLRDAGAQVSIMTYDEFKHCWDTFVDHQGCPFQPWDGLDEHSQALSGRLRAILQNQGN
Intestinal-type alkaline phosphatase (Mus musculus, UniProt P24822), sequence (P24822 whole entry): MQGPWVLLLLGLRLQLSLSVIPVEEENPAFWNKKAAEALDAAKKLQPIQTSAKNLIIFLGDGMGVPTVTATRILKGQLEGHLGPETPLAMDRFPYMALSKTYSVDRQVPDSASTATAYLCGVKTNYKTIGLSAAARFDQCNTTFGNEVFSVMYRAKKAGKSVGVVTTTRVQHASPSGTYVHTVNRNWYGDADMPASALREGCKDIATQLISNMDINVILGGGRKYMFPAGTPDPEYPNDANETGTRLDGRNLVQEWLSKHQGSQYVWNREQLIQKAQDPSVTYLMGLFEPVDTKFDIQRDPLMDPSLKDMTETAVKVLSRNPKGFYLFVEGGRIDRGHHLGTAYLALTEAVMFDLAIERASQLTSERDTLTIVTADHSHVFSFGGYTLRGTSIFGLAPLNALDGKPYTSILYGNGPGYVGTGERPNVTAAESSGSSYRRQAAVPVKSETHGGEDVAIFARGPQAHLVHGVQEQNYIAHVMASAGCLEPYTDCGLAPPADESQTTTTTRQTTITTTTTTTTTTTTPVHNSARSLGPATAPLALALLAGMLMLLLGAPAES
Intestinal-type alkaline phosphatase (Homo sapiens, UniProt P09923), sequence (P09923 whole entry): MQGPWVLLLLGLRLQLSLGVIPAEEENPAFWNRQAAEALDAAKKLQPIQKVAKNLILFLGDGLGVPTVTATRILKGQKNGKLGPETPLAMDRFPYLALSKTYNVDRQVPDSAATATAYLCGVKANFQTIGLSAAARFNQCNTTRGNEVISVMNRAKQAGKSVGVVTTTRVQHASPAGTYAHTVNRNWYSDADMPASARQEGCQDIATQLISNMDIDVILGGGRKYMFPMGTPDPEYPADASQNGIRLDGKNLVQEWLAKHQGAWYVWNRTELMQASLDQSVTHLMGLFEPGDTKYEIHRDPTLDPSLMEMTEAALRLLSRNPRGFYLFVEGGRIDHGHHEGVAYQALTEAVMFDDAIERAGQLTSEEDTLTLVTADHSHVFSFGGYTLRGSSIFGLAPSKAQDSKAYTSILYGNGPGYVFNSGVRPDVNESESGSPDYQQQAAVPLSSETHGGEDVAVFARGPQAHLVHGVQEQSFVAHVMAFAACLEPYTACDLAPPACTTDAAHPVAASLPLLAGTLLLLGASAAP

CC1(C(=O)NNC(=O)c2ccc(=O)oc2)CC1Br (stereo unspecified)
IC50 [1]: 11 µM (active)
IC50 [2]: > 100 µM (inactive)
EC50 [3]: > 100 µM (inactive)

CC1=C(C(=O)NCc2ccccc2)C(c2cc(Br)cc(Br)c2OC(C)C)NC(=O)N1 (stereo unspecified)
EC50 [4]: 4.22 µM (active)

Cc1cccc(NC(=O)CN2C(=O)N/C(=C\c3ccccc3OCc3ccc(C(=O)O)cc3)C2=O)c1
AC50 [5]: 9.77 µM (active)
IC50 [6]: 17.5 µM (active)
IC50 [7]: 6.07 µM (active)
IC50 [8]: 77.6 µM (active)

O=c1c2ccccc2sn1-c1ccc(F)cc1
IC50 [9]: > 100 µM (inactive)
EC50 [10]: 98.5 µM (inactive)
IC50 (Beta Lactamase): 29.5 µM (inactive)
IC50 [11]: 12.4 µM (active)
IC50 [12]: > 100 µM (inactive)
IC50 (Phosphomannomutase 2): 18.1 µM (active)
CC50 [13]: 77.3 µM (active)
IC50 [14]: 4.85 µM (inactive)
IC50 [15]: 1.49 µM (active)
IC50 [16]: > 66 µM (inactive)
IC50 [17]: 5.1 µM (active)
IC50 [18]: > 66 µM (inactive)
IC50 [19]: 39.3 µM (active)
